As usually defined, the inhibition is the relative decrease from the control value, in per cent. The IC50 is the concentration at which inhibition is half-maximal.

The text below walks through data of ChEMBL document CHEMBL4004877, “Synthesis and biological evaluation of chalcone, dihydrochalcone, and 1,3-diarylpropane analogs as anti-inflammatory agents” (Bioorg Med Chem Lett, 2017).

Data set [1] deals with RAW264.7. The data set can be described thus: Antiinflammatory activity in mouse RAW264.7 cells assessed as inhibition of LPS induced iNOS-dependent nitric oxide production at 1.25 ug/ml after 24 hrs by Griess assay relative to control. It is filed as functional. Conditions: RAW264.7, 24 h.
Data set [2] has as its system RAW264.7. The data set can be described thus: Antiinflammatory activity in mouse RAW264.7 cells assessed as inhibition of LPS induced iNOS-dependent nitric oxide production at 2.5 ug/ml after 24 hrs by Griess assay relative to control. It counts as functional. Conditions: RAW264.7, 24 h.
For data set [3], the system named is RAW264.7. The data set can be described thus: Antiinflammatory activity in mouse RAW264.7 cells assessed as inhibition of LPS induced iNOS-dependent nitric oxide production at 5 ug/ml after 24 hrs by Griess assay relative to control. It counts as functional. The conditions noted are these: RAW264.7, 24 h.
Data set [4] concerns RAW264.7. The data set can be described thus: Antiinflammatory activity in mouse RAW264.7 cells assessed as inhibition of LPS induced iNOS-dependent nitric oxide production at 10 ug/ml after 24 hrs by Griess assay relative to control. It counts as functional. The conditions noted are these: RAW264.7, 24 h. In general terms: Nitrite, measured by Griess reagent, commonly stands in for NO production.

Data set [5] deals with RAW264.7. The data set can be described thus: Antiinflammatory activity in mouse RAW264.7 cells assessed as inhibition of LPS induced iNOS-dependent nitric oxide production after 24 hrs by Griess assay. It counts as functional, cell-based. The conditions noted are these: RAW264.7, 24 h.
The nature of data set [6]: Cytotoxicity against LPS-stimulated mouse RAW264.7 cells assessed as cell viability at 1.25 ug/ml after 24 hrs by MTT assay relative to control. It counts as cell-based. The conditions noted are these: LPS-stimulated RAW264.7 cells, read-out: Activity.
Data set [7] can be described thus: Cytotoxicity against LPS-stimulated mouse RAW264.7 cells assessed as cell viability at 2.5 ug/ml after 24 hrs by MTT assay relative to control. Conditions: LPS-stimulated RAW264.7 cells, read-out: Activity. It counts as cell-based.
Data set [8] can be described thus: Cytotoxicity against LPS-stimulated mouse RAW264.7 cells assessed as cell viability at 5 ug/ml after 24 hrs by MTT assay relative to control. It is filed as cell-based. Conditions: LPS-stimulated RAW264.7 cells, read-out: Activity.
Data set [9] can be described thus: Cytotoxicity against LPS-stimulated mouse RAW264.7 cells assessed as cell viability at 10 ug/ml after 24 hrs by MTT assay relative to control. It counts as cell-based. The conditions noted are these: LPS-stimulated RAW264.7 cells, read-out: Activity. In general terms: Tetrazolium dyes change colour on reduction, which living cells bring about.
For data set [10], the system named is RAW264.7. The data set can be described thus: Inhibition of iNOS expression in LPS-stimulated mouse RAW264.7 cells after 24 hrs by Western blot method. It counts as functional, cell-based. (In general: Immunoblotting shows a protein as a band on a membrane.)
In data set [11] the test system is RAW264.7. The data set can be described thus: Inhibition of COX2 expression in LPS-stimulated mouse RAW264.7 cells at 2.5 to 10 ug/ml after 24 hrs by Western blot method. It is filed as functional, cell-based.
The subject of data set [12] is RAW264.7. The data set can be described thus: Inhibition of IkappaB-alpha expression in LPS-stimulated mouse RAW264.7 cells at 2.5 to 10 ug/ml preincubated for 1 hr followed by LPS challenge measured after 24 hrs by Western blot method. It counts as functional, cell-based.
For data set [13], the species on record is Mus musculus. The data set can be described thus: Inhibition of ERK phosphorylation in LPS-stimulated mouse RAW264.7 cells at 2.5 to 10 ug/ml preincubated for 1 hr followed by LPS challenge measured after 24 hrs by Western blot method.
Data set [14] is filed under the species Mus musculus. The data set can be described thus: Inhibition of JNK phosphorylation in LPS-stimulated mouse RAW264.7 cells at 2.5 to 10 ug/ml preincubated for 1 hr followed by LPS challenge measured after 24 hrs by Western blot method.
Data set [15] addresses MAP kinase p38 (Mus musculus) (UniProt P47811+O08911+Q9WUI1+Q9Z1B7). The data set can be described thus: Inhibition of p38 phosphorylation in LPS-stimulated mouse RAW264.7 cells at 2.5 to 10 ug/ml preincubated for 1 hr followed by LPS challenge measured after 24 hrs by Western blot method.
Data set [16] relates to RAW264.7. The data set can be described thus: Effect on non-phosphorylated ERK in LPS-stimulated mouse RAW264.7 cells at 2.5 to 10 ug/ml preincubated for 1 hr followed by LPS challenge measured after 24 hrs by Western blot method. It is filed as cell-based. Conditions: raw264.7, 24 h.
In data set [17] the test system is RAW264.7. The data set can be described thus: Effect on non-phosphorylated JNK in LPS-stimulated mouse RAW264.7 cells at 2.5 to 10 ug/ml preincubated for 1 hr followed by LPS challenge measured after 24 hrs by Western blot method. It counts as cell-based. The conditions noted are these: raw264.7, 24 h.
Data set [18] relates to RAW264.7. The data set can be described thus: Effect on non-phosphorylated p38 in LPS-stimulated mouse RAW264.7 cells at 2.5 to 10 ug/ml preincubated for 1 hr followed by LPS challenge measured after 24 hrs by Western blot method. Conditions: raw264.7, 24 h. It is filed as cell-based.

Converted amounts (≈) assume the structure as drawn. The source made the active and inactive calls. No cut-off for these calls is given here.

On to `COc1ccc(CCCc2ccc(OC)c(OC)c2)c(O)c1`, for which the inhibition at 1.25 µg/mL with RAW264.7 [1] was 29.6%. Moreover, the inhibition at 2.5 µg/mL in the data set with RAW264.7 [2] came out at 60.5%. For the same compound, in the data set with RAW264.7 [3], the inhibition at 5 µg/mL turned out to be 69.2%. In addition, in the data set on RAW264.7 [4], the inhibition at 10 µg/mL was 75.5%. Also, in the data set with RAW264.7 [5], the half-maximal inhibitory concentration (IC50) was found to be 1.97 µg/mL (≈ 6.52 µM). Moreover, the viability at 24 h, 1.25 ug/ml in data set [6] was found to be 97.9%. Besides, in data set [7], the viability at 24 h, 2.5 ug/ml stood at 91.7%. For the same compound, the viability at 24 h, 5 ug/ml in data set [8] stood at 88.9%. The viability at 24 h, 10 ug/ml in [9] is 44.5%. The inhibition result with RAW264.7 [10] was “Dose-dependent effect”. The inhibition entry (in the data set on RAW264.7 [11]; in the data set listed under Mus musculus [13]; in the data set listed under Mus musculus [14]; in [15]) was “Active” in each case. Also, the inhibition entry in the data set on RAW264.7 [12] is “inactive”. Further, the Activity result in the data set on RAW264.7 [16], in the data set with RAW264.7 [17] and in the data set with RAW264.7 [18] was “Non-Toxic” each time.

Regarding `Oc1ccc(CCCc2ccc3c(c2)OCO3)cc1`, the inhibition at 1.25 µg/mL in the data set with RAW264.7 [1] came out at 33%. For the same compound, in the data set on RAW264.7 [2], the inhibition at 2.5 µg/mL is 37.7%. Further, the inhibition at 5 µg/mL in the data set on RAW264.7 [3] is 48.9%. Moreover, the inhibition at 10 µg/mL in the data set on RAW264.7 [4] is 69.4%. The IC50 in the data set on RAW264.7 [5] is 5.18 µg/mL (≈ 20.2 µM). In [6], the viability at 24 h, 1.25 ug/ml was 99.2%. In addition, the viability at 24 h, 2.5 ug/ml in data set [7] was 95.7%. In [8], the viability at 24 h, 5 ug/ml was determined as 94.5%. Moreover, in data set [9], the viability at 24 h, 10 ug/ml was 92.6%.

With `COc1cc(CCCc2cccc(O)c2)ccc1O`, the inhibition at 1.25 µg/mL with RAW264.7 [1] came to 10.9%. In addition, in the data set on RAW264.7 [2], the inhibition at 2.5 µg/mL worked out at 15.9%. The inhibition at 5 µg/mL in the data set on RAW264.7 [3] was determined as 18.1%. For the same compound, in the data set with RAW264.7 [4], the inhibition at 10 µg/mL came to 80.4%. Moreover, the IC50 in the data set with RAW264.7 [5] worked out at 7.13 µg/mL (≈ 27.6 µM). Further, the viability at 24 h, 1.25 ug/ml in [6] was 100%. Further, the viability at 24 h, 2.5 ug/ml in data set [7] amounted to 99.5%. Further, the viability at 24 h, 5 ug/ml in data set [8] was found to be 97.7%. Also, in data set [9], the viability at 24 h, 10 ug/ml was determined as 76.1%.
